From PMC11233931, “Remodeling tumor‐associated macrophage for anti‐cancer effects by rational design of irreversible inhibition of mitogen‐activated protein kinase‐activated protein kinase 2” (MedComm, 2024)

Key:
Assay in all cases: Eurofins kinase selectivity profile against 380 other human recombinant kinases (Table S2)
Type in all cases: biochemical
[1] = molecular target: T1, 380 human recombinant protein kinases (Homo sapiens, UniProt P05129); settings: PKCγ(h), read-out: Inhibition rate
T1 construct: purchased Eurofins (Celle Lévescault)
Outline: (§1)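 Off-target profiling: one compound assayed by a commercial provider over 380 recombinant human protein kinases at various concentrations.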

[2] = molecular target: T2, 380 human recombinant protein kinases (Homo sapiens, UniProt P21709); settings: EphA1(h), read-out: Inhibition rate
T2 construct: purchased Eurofins (Celle Lévescault)
T2 sequence (P21709 26-976): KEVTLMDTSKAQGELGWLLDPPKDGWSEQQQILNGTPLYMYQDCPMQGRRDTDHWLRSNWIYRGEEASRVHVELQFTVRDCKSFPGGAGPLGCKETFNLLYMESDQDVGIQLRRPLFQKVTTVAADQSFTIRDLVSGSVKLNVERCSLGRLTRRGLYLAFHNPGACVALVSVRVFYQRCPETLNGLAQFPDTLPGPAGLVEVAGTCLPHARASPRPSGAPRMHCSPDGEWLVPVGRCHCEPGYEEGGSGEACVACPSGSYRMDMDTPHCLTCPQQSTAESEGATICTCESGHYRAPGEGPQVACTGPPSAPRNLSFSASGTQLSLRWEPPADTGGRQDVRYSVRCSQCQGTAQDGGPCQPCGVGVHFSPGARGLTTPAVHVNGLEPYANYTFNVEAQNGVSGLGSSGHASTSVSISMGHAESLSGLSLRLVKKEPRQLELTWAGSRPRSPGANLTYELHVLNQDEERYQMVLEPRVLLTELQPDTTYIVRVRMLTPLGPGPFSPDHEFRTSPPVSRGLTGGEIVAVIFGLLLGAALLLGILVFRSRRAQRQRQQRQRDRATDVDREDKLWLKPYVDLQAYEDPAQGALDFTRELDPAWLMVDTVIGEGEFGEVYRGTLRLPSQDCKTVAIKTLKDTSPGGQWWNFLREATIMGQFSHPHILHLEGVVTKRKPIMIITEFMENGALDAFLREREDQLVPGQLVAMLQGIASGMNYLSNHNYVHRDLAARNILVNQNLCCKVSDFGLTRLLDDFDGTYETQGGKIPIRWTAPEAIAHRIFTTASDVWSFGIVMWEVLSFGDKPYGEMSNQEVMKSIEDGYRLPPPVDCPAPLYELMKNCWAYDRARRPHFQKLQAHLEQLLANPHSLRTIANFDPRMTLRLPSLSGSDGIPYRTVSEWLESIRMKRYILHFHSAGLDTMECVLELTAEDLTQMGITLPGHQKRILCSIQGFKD
Outline: as §1

[3] = molecular target: T3, 380 human recombinant protein kinases (Homo sapiens, UniProt O14757); settings: CHK1(h), read-out: Inhibition rate
T3 construct: purchased Eurofins (Celle Lévescault)
T3 sequence (O14757 1-476): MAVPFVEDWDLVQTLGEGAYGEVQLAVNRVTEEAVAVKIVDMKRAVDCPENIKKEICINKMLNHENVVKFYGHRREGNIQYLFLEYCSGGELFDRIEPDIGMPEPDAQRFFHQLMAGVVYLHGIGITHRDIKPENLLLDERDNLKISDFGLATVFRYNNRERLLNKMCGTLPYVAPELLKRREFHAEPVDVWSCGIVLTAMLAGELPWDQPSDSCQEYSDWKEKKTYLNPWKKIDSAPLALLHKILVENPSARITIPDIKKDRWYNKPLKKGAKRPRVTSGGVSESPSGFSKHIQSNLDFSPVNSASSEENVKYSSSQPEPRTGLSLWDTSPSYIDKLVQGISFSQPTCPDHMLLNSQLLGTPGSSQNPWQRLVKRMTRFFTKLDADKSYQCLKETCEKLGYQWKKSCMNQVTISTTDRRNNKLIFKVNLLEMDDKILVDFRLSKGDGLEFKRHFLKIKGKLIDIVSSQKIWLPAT
Outline: as §1

[4] = molecular target: T4, 380 human recombinant protein kinases (Homo sapiens, UniProt Q6DT37); settings: MRCKγ(h), read-out: Inhibition rate
T4 construct: purchased Eurofins (Celle Lévescault)
T4 sequence (Q6DT37 whole entry): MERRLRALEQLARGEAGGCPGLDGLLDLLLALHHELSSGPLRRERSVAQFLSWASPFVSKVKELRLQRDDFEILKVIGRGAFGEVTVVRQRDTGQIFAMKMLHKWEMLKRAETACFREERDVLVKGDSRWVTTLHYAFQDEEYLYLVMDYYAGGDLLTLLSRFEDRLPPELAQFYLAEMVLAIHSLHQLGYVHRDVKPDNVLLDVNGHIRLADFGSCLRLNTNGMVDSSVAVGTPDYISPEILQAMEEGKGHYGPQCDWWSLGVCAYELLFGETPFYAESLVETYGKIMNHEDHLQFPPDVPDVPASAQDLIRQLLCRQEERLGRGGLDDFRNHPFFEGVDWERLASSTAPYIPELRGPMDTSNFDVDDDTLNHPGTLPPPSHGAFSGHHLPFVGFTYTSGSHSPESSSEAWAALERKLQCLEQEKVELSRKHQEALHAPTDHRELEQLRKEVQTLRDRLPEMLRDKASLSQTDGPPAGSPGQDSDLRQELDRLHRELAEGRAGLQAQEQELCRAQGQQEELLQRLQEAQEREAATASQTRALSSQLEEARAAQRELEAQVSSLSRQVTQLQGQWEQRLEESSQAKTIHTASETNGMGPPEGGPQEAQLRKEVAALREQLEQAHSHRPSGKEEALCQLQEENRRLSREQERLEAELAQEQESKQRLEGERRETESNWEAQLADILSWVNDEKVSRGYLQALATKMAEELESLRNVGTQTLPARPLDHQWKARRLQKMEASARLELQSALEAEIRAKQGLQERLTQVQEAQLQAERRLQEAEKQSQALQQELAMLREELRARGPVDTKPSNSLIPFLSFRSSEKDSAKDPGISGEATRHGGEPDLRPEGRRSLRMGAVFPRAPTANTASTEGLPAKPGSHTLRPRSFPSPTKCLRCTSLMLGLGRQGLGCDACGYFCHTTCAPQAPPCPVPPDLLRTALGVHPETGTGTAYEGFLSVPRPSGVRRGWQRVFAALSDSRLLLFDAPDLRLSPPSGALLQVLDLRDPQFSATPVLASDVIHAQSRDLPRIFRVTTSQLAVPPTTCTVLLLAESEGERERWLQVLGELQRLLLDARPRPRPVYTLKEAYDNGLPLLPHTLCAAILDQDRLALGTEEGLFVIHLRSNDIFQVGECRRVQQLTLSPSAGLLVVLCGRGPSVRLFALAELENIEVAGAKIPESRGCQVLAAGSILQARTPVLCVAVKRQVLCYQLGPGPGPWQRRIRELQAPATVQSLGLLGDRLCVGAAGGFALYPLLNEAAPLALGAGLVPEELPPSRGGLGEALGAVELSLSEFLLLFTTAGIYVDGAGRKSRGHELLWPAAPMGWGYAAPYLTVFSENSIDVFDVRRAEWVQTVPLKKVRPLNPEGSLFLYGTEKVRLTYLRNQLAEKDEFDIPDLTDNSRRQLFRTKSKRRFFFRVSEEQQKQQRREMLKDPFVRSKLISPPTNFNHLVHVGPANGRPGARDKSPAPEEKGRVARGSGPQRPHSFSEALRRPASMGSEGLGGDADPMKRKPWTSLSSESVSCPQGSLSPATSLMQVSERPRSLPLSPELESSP
Outline: as §1

[5] = molecular target: T5, 380 human recombinant protein kinases (Homo sapiens, UniProt P36896); settings: ALK4(h), read-out: Inhibition rate
T5 construct: purchased Eurofins (Celle Lévescault)
T5 sequence (P36896 24-505): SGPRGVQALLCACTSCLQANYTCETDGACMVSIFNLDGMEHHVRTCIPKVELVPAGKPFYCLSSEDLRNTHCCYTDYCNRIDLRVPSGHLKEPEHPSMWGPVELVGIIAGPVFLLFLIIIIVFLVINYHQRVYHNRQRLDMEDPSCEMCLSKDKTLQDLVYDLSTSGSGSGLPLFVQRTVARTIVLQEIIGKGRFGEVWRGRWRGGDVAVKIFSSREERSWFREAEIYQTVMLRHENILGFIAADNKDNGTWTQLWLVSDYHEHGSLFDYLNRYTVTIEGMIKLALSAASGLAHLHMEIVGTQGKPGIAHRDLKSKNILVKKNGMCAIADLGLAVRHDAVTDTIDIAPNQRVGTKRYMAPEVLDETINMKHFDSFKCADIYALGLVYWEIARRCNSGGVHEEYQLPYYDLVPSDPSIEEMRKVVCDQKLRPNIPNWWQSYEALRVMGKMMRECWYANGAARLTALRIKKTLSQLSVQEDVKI
Outline: as §1

**Q.** With C=CC(=O)Nc1cc(-c2cc(-c3cc4c([nH]3)CCNC4=O)ccn2)ccc1OC(F)(F)F [compound 11] as the compound, how does the inhibition at 0.01 µM ([1]; 10 nM) read?
**A.** Its inhibition at 0.01 µM is 7%.

**Q.** And the inhibition at 0.1 µM ([1]; 100 nM)?
**A.** The inhibition at 0.1 µM was 5%.

**Q.** What about the inhibition at 1 µM ([1]; 1000 nM) of the same compound?
**A.** The inhibition at 1 µM was 14%.

**Q.** And the inhibition at 0.01 µM ([2]; 10 nM)?
**A.** Its inhibition at 0.01 µM is -2%.

**Q.** What about the inhibition at 0.1 µM ([2]; 100 nM) of the same compound?
**A.** The inhibition at 0.1 µM was -5%.

**Q.** And the inhibition at 1 µM ([2]; 1000 nM)?
**A.** The inhibition at 1 µM was -2%.

**Q.** What about the inhibition at 0.01 µM ([3]; 10 nM) of the same compound?
**A.** The inhibition at 0.01 µM was 10%.

**Q.** What about the inhibition at 0.1 µM ([3]; 100 nM) of the same compound?
**A.** The inhibition at 0.1 µM was 6%.

**Q.** And the inhibition at 1 µM ([3]; 1000 nM)?
**A.** Its inhibition at 1 µM is 6%.

**Q.** And the inhibition at 0.01 µM ([4]; 10 nM)?
**A.** Its inhibition at 0.01 µM is -13%.

**Q.** What about the inhibition at 0.1 µM ([4]; 100 nM) of the same compound?
**A.** Its inhibition at 0.1 µM is 2%.

**Q.** What about the inhibition at 1 µM ([4]; 1000 nM) of the same compound?
**A.** Its inhibition at 1 µM is 12%.

**Q.** What about the inhibition at 0.01 µM ([5]; 10 nM) of the same compound?
**A.** The inhibition at 0.01 µM was 26%.

**Q.** And the inhibition at 0.1 µM ([5]; 100 nM)?
**A.** Its inhibition at 0.1 µM is 16%.

**Q.** What about the inhibition at 1 µM ([5]; 1000 nM) of the same compound?
**A.** Its inhibition at 1 µM is 6%.
